Results on two compounds are retold here after US11629144B2, “Crystal form of monomethanesulfonate of deuterated 3-(4,5-substituted aminopyrimidine)phenyl compound and preparation method therefor” (NANJING CHUANGTE PHARMACEUTICAL TECHNOLOGY CO., LTD., priority 2018, dated 2023).

Assay type in all cases: physicochemical
Data set [1] is described as follows: Stability differential scanning calorimetry (DSC) test. Conditions: rate of temperature rise 10.00° C./min. The protocol:
1. Stability Differential Scanning Calorimetry (DSC) Test
Instrument: NETZSCH DSC 204 type differential thermal analyzer
Rate of temperature rise: 10.00° C./min
In general terms: In DSC, transitions show as peaks or steps in heat flow.

Data set [2] can be described thus: Crystal influence factor test (high temperature, high humidity, illumination, 15 days). The conditions noted are these: high-humidity and illumination conditions for 15 days. An excerpt: 2. Crystal Influence Factor Test
Data set [3] can be described thus: Accelerated lofting test. Also noted: Maximum individual impurity / Loss on drying: unit not given here. Conditions: 40±2° C., RH 75%±5%; for Loss on drying: limit ≤1.0; for Maximum individual impurity: limit ≤2.50; for Total impurity: limit ≤4.0%; for Methanesulfonic acid (%): limit ≤15.0-15.8%; for Content (%): should not be less than 78.0%. As to the method: 3. Accelerated Lofting Test
A sample of the crystal form B of the monomethanesulfonate of the compound shown in formula I was placed in a petri dish and was sampled and tested at 0 hour, 1 month, 2 months, 3 months, and 6 months respectively at a temperature of 40±2° C. and a relative humidity of 75%±5%, with the results shown in Table 1: […]

Data set [4] in a line: Long-term lofting experiments. The conditions noted are these: 25±5° C., RH 60%±10%; for Loss on diying: limit ≤1.0; for Maximum individual impurity: limit ≤2.50; for Total impurity: limit ≤4.0%; for Methanesulfonic acid (%): limit ≤15.0-15.8%; for Content (%): should not be less than 78.0%. As to the method: 4. Long-Term Lofting Experiments
A sample of the crystal form B of the monomethanesulfonate of the compound shown in formula I was placed in a petri dish under the conditions of the temperature being 25±5° C. and the relative humidity being 60%±10% and was sampled and tested at 0 hour, 3 months, and 6 months respectively, with the results shown in Table 2: […]

Entries after “also recorded” stand apart in the source; their conditions may differ.

As to `[2H]C([2H])([2H])N(C)CCN(C)c1cc(OC)c(Nc2nccc(-c3cn4c5c(cccc35)CCC4)n2)cc1NC(=O)C=C` [crystal form A], the “DSC peak (stability of heat exchange range)” value in data set [1] is reported as “a single peak value is observed”. For the same compound, the “Crystal transformation (X-ray diffraction pattern)” value in data set [2] was “can be converted into the crystal form B of the monomethanesulfonate under the high-temperature or high-humidity condition; also recorded: converted to the crystal form B of the monomethanesulfonate at high temperature and high humidity”.
`[2H]C([2H])([2H])N(C)CCN(C)c1cc(OC)c(Nc2nccc(-c3cn4c5c(cccc35)CCC4)n2)cc1NC(=O)C=C` [crystal form B]: the Loss on drying in data set [3] (0 month) came to 0.08; in data set [3] (1 month), 0.03; in data set [3] (2 months) it was 0.03; in data set [3] (3 months) it was 0.03; in data set [3] (6 months) it was 0.14. The Maximum individual impurity is given as 1.62 in data set [3] (0 month); 1.87 in data set [3] (1 month); 1.42 in data set [3] (2 months); 1.62 in data set [3] (3 months); 1.61 in data set [3] (6 months); 1.62 in data set [4] (0 month). Besides, the Maximum individual impurity was determined as 1.65 in data set [4] (3 months) and 1.48 in data set [4] (6 months). Further, the Total impurity in data set [3] (0 month) is 2.55%; in data set [3] (1 month) it was 3.12%; in data set [3] (2 months) it was 2.72%; in data set [3] (3 months) it was 2.72%; in data set [3] (6 months) it was 2.74%; in data set [4] (0 month) it was 2.55%. Besides, the figures for the Total impurity in data set [4] (3 months) and in data set [4] (6 months) were 2.78% and 2.50%, respectively. For the same compound, the “Methanesulfonic acid (%)” value worked out at 15.5% in data set [3] (0 month); 15.2% in data set [3] (1 month); 15.4% in data set [3] (2 months); 15.4% in data set [3] (3 months); 15.4% in data set [3] (6 months); 15.5% in data set [4] (0 month). Also, the “Methanesulfonic acid (%)” value in data set [4] (3 months) and in data set [4] (6 months) was 15.4% throughout. For the same compound, the “Content (%)” value in data set [3] (0 month) was 80.5%; in data set [3] (1 month) it was 82.2%; in data set [3] (2 months), 82.3%; in data set [3] (3 months) it was 79.5%; in data set [3] (6 months) it was 80.8%; in data set [4] (0 month), 80.5%. The “Content (%)” value in data set [4] (3 months) was 80.0%; in data set [4] (6 months), 82.3%. Besides, the “Crystal form by X-ray powder diffraction pattern compared with before the experiments” value in data set [3] (6 months) and in data set [4] (6 months) was “the crystal form was not changed” each time. Besides, the “Change of all investigation items” value in data set [3] (up to 6 months) and in data set [4] (up to 6 months) was “all investigation items have no obvious change” throughout. Besides, the results for the Loss on diying in data set [4] (0 month), in data set [4] (3 months) and in data set [4] (6 months) were 0.08, 0.08 and 0.6, respectively.
